A melting point compilation (Tetko et al.; mined from patent text by program, amines drawn as free bases though some values may be those of a salt)

melting point [°C]	Compound
97.5 to 102	CCCCCCCCCCCCc1ccccc1CC(O)(SCCC(=O)O)C(N)=O (configuration not stated)
66 to 69	C=CS(=O)(=O)c1c(Cl)c(Cl)nn1C
74.5 to 75.5	CSC(SC)=C(C#N)C(=O)c1cc(C)ccc1C
197 to 200	OCC(O)COc1ccc(-c2nc(-c3cccs3)c[nH]2)cc1 (configuration not stated)
140 to 141	CSc1ccc(/C=C/c2nc3ccccc3n2-c2ccccn2)cc1
212 to 215	O=C1N(Cc2ncccc2C(F)(F)F)c2ccccc2C12COc1ccc3nonc3c12 (configuration not stated)
187 to 188	CS(=O)(=O)c1ccc(C(=O)O)c(F)c1
101 to 103	COc1ccc(C=CS(=O)(=O)N2C(=O)CCC2OC(C)C)cc1 (configuration not stated)
177 to 179	O=C(O)C1=NN(c2ccc(Cl)cc2)C(c2ccccc2)C1 (configuration not stated)
195 to 197	COCCOc1ccc(/C=C/C(=O)NS(=O)(=O)c2cccc(C#N)c2)c(Oc2ncc(C(F)(F)F)cc2Cl)c1
66 to 68	Cn1c(=O)on(-c2cc(F)ccc2F)c1=O
143 to 144	COc1cc(NC(C)=O)c(Cl)c(C(F)(F)F)c1Cl
68	CCOC(=O)Cc1ccc(-c2ccc(OC)cc2)cc1
232 to 238	Cn1ccnc1Sc1ccc(Nc2c(C#N)cnc3cc(/C=C/CCN4CCOCC4)ccc23)cc1Cl
137 to 138	CCC(C(=O)C(C)C(O)C(C)CCC1=C(C(=O)O)C(O)=C(C)CC1=[N+]=[N-])C1OC(CC)(C2CCC(O)(CC)C(C)O2)CC1C (configuration not stated)
187 to 188	COc1ccccc1C1NC(=O)C(C)S1 (configuration not stated)
172	NS(=O)(=O)c1ccc(-n2nc(C(F)(F)F)cc2-c2ccc(-c3ccco3)c(Cl)c2)cc1F
165 to 167	Cc1noc(C)c1CN1C(=O)C2(COc3cc4c(cc32)OCO4)c2ccccc21 (configuration not stated)
185 to 187	Cc1nnc2ccc(-c3cccc(C(F)(F)F)c3)cn12
130	C#CCOC(=O)C1=C(C)NC(C)=C(C(=O)OCC)C1c1ccccc1C(F)(F)F (configuration not stated)
212 to 213	COc1ccc(-c2cc(N3CCOCC3)cc(=O)o2)cc1
128 to 130	CCC(OCc1ccc(-c2ccc(Cl)cc2)cc1)(C(=O)O)c1ccccc1 (configuration not stated)
69 to 70	O=[N+]([O-])c1ccc(C2CCc3c(CCCCCCO)n[nH]c3C2)cc1 (configuration not stated)
143 to 144	COc1cccc2c1CCC(CN1C(=O)c3ccccc3C1=O)C2 (configuration not stated)
181 to 183	COc1cc2cnn(CCCl)c(=O)c2cc1OC

melting point [°C]	Compound
204 to 205	Cc1cc(C#N)cn2cc(-c3ccc(Br)o3)nc12
108	COc1cc(C=Cc2ccccc2)cc(OC)c1OC
166 to 168	CS(=O)(=O)c1ccc(-c2cnn(-c3ccc(F)c(F)c3)c(=O)c2Cc2ccccc2)cc1
208 to 209	Cc1ccc(NC(=O)c2ccc(Br)cc2)cc1N1CCN(C)CC1
110 to 111	CSc1cc(=O)c2cc(OC(=O)OC(C)(C)C)c(OC(=O)OC(C)(C)C)cc2s1
118 to 119	Cc1ccc(Oc2ccccc2C#N)c(O)c1
141 to 143	O=C(Cl)[C@H](Cc1ccccc1)NS(=O)(=O)c1ccc2ccccc2c1
280 to 282	CN1CCN(Cc2c(O)c(O)c(O)c3c(=O)cc(-c4ccccc4)oc23)CC1
64 to 67	O=c1oc(-c2ccccc2)ns1
209 to 210	CCCCCc1c(/C=C/C(=O)O)sc2cc(OC)ccc12
125 to 126	COC(=O)c1nc(-c2ccc(Cl)c(F)c2)c(F)c(N)c1SC
110	CCCc1nc2ccnn2c(OC)c1Cc1ccc(-c2ccccc2C#N)cc1
233	OCc1cc(-c2cnn3c(C(F)(F)F)cc(-c4ccc(Cl)c(Cl)c4)nc23)ccn1
273 to 275	COC(=O)c1c(C(=O)O)cc2ccc3c(c2c1-c1ccc2c(c1)OCO2)OCO3
280 to 285	Cc1cc(C)n2nc(S(=O)(=O)Nc3c(Cl)cccc3Cl)c(C#N)c2n1
100 to 102	CC(C)(C)OC(=O)NC12CC3CC(C1)CC(OS(C)(=O)=O)(C3)C2
118 to 123	CCCCOC(=O)c1[nH]c(=O)c2cc(OC(C)C)ccc2c1O
195 to 197	CCOC(=O)c1cn([C@@H](C)CO)c2c(F)c(N3CCN(C)CC3)c(F)cc2c1=O
131 to 133	COc1ccc(S(=O)(=O)N2c3ccccc3-c3ccccc3C2C)cc1OC (configuration not stated)
207 to 209	COc1ccc(CN(Cc2ccc(OC)cc2)c2nc(-c3ccccc3)c(-c3ccc(=O)n(C(C)C)n3)nc2C#N)cc1
155 to 158	CCC1(CC)c2cc(CO)c(CO)cc2C(CC)(CC)N1Cc1ccccc1
287 to 288	O=C(O)c1ccc(C(=O)O)c(-c2nc3ccccc3s2)c1
231 to 233	COc1cc(Nc2c(C#N)cnc3sc(I)cc23)c(Cl)cc1Cl
46 to 47	CCC(O)(c1ccc(OCCN(C(C)C)C(C)C)cc1)c1ccccc1OC (configuration not stated)
159 to 160	O=C(NCCO)c1cccc(-c2cccc3nn(Cc4ccccc4F)cc23)c1

melting point [°C]	Compound
51 to 53	CCCOCCCCOCCCCCCNCC(O)c1cc(Cl)c(N)c(Cl)c1 (configuration not stated)
110	O=C(O)C1C(=O)Nc2ccccc2SC1c1ccc2c(c1)OCO2 (mixture of isomers)
46 to 48	CCOC(=O)c1c(C(F)(F)F)nc(C(F)(F)F)c(C(=O)OC)c1Cl
233 to 236	COCCn1nc2c(N)nc3ncccc3c2c1CC(C)(C)O
169 to 171	CC(=O)N1CCC(=O)C(C(c2ccc(Cl)cc2)c2ccc(Cl)cc2)C1 (configuration not stated)
161	COc1ccc(-c2nc(Sc3ccccc3OC)[nH]c2-c2ccc(OC)cc2)cc1
86 to 88	CO[C@@H]1COCC[C@]1(OC)c1cccc(OCc2ccc3ccccc3c2)c1 (racemic)
90 to 96	C=CCn1c(=O)c2cnc(Nc3ccc(OCCN(CC)CC)cc3)nc2n(C(C)C)c1=O
214 to 216	O=C(O)c1cc(-c2ccccc2)ccc1O
148 to 150	CCOC(=O)C1CC(=O)c2nc(C)n(C)c2C1 (configuration not stated)
93 to 95	CN1CCN(CCSc2nc3ccccc3[nH]2)CC1
80	CN(C)CCOc1cc(-c2ccccc2)nn1N
248 to 250	NC1=C(N=O)C(=O)N2CCN=C2N1Cc1ccc(F)cc1
197 to 199	CCOC(=O)Cc1n[nH]c(=O)c2c(C)cccc12
163	Cc1cccc(NC(=O)NCC(=O)N(CC(=O)OC(C)(C)C)c2ccccc2OC(F)(F)F)c1
113 to 116	Nc1ccccc1NS(=O)(=O)c1cc(C(=O)O)cc(NCc2ccccc2)c1Oc1ccccc1
144	CC(C)(C)OC(=O)C1C(C#CC(=O)O)C1(C)C (configuration not stated)
> 300	Cn1ncc2nc3c(c(O)c21)CCCC3
194 to 198	CCCc1nc2c(N)nc3cc(OCCCNC(=O)NS(=O)(=O)c4ccc(F)cc4)ccc3c2n1CC(C)C
80	CC(=O)C=Cc1ccc2c(c1)OCCO2
173 to 175	CCCCCN1C(=O)C2(COc3cc4c(cc32)OCO4)c2c(C(=O)Nc3cccc(OC)c3)cccc21 (configuration not stated)
76.6 to 76.8	CCOC(=O)/C=C/c1ccc(OCCOCCOC)cc1Oc1ncc(C(F)(F)F)cc1Cl
117 to 119	O=C(O)c1cnc2n(c1=O)CCCCC2
247 to 248	Cc1c(S(=O)(=O)c2ccc(=O)[nH]n2)oc2ccc(Cl)cc12
81	CCN(CC)CCOc1ccc(N2C(=O)C(c3ccccc3)=C3CCCCC32)cc1 (configuration not stated)

melting point [°C]	Compound
243 to 245	CCC(=O)c1cc(C#N)c(=O)[nH]c1CC
299 to 300	O=C(Nc1ccc2[nH]c(=O)[nH]c2c1)C(=O)N1CCC(Cc2ccc(Cl)cc2)CC1
232	CCc1nc2c(o1)C(=O)C=C(Nc1ccc(F)cc1)C2=O
188 to 190	CCOC(=O)c1cnc2cn[nH]c2c1Nc1cccs1
91 to 94	O=C(O)CCCNC(=O)COc1ccccc1
147 to 148	O=C(Cc1noc2ccccc12)NS(=O)(=O)C1CC1
194 to 195	COc1cc(C)c(C2=C(C)CN(O)C=C2C)c(C)c1
110 to 120	Cc1noc(NS(=O)(=O)c2ccccc2-c2ccc(-c3ncco3)cc2CN(C(=O)C(C)C)C2CC2)c1C
123 to 125	CSC(NCCNC(=O)OC(C)(C)C)=C(C#N)C#N
270 to 271	O=C(Nc1cccnc1)N1CCN(c2nccc(-c3cc(F)ccc3F)n2)CC1
279	Cc1csc2nc(N3CCC(C(=O)O)CC3)nc(NCc3ccc(F)cc3)c12
124	COc1ccc(Oc2cccc(C(F)(F)F)c2)c(C(=O)O)c1
122 to 125	CCC(C)(C)c1c(OCc2ncnn2C)nn2c(-c3c(F)ccc(F)c3F)nncc12
126 to 128	CC(C)(C)OC(=O)N1CCC[C@@H](OC(=O)c2ccc(OC(C)(C)C)cc2)[C@H](NC(=O)c2ccc(OC(C)(C)C)cc2)C1
123 to 125	COc1cc([N+](=O)[O-])c2nccc(C)c2c1OC
83 to 84	O=C(OCC(=O)N1CCCC1=O)c1ccccc1
225 to 226	CCOC(=O)c1c2n(c3ccc(F)cc3c1=O)CCS2
88 to 90	CCCCCC(=O)n1c(=O)n(-c2ccc(OC)cc2)c(=O)n1C(=O)CCCCC
222 to 225	COC(=O)c1n[nH]c(=O)c2cc(OC)ccc12
144 to 145	CC(=O)Nc1c(C(=O)c2ccccc2)[nH]c2cc(F)ccc12
65 to 66	O=Cc1cccc(-c2cccc3ccccc23)n1
160 to 162	O=C(NCCO)/C(=C/c1ccc(OC(F)F)cc1)NC(=O)c1ccc(OCCc2ccc(Cl)cc2)cc1
243 to 244	c1cn(-c2cc(-n3ccnc3)ncn2)cn1

Compound	melting point [°C]
Cc1nc(CN(C)C)n2c1CN=C(c1ccccc1Cl)c1cc(Cl)ccc1-2	185 to 186
CC(C)Cn1nc(C(=O)c2cccc(O)c2)c2ccccc21	108 to 110
O=C1c2c(Cl)cccc2-n2cnc(C#Cc3ccccc3)c2[C@@H]2CCCN12	241 to 242
CCCCCCCCCC(=O)NCCCCCC(=O)OO	63 to 67
